pIC50: −log10 of the molar value. Active and inactive are the calls of the source. No cut-off for these calls is given here.
Columns and labels:
Tubulin (Homo sapiens) [1] = molecular target: T1, Tubulin (Homo sapiens) (UniProt P68371+Q9H4B7+P0DPH7+P68366+Q13509+Q71U36+P04350+Q3ZCM7+P07437+P68363+Q9BQE3+Q6PEY2+Q13885+Q9BVA1+Q9BUF5); test: Inhibition of colchicine binding to tubulin (unknown origin) at 1 uM by fluorescence assay; assay type: protein-complex assay
A549 [2] = test: Cytotoxicity against human A549 cells assessed as reduction in cell viability; assay type: functional, cell-based
A549 [3] = test: Potency index, ratio of […] for cytotoxicity against human A549 cells assessed as reduction in cell viability; assay type: functional
HeLa = test: Cytotoxicity against human HeLa cells assessed as reduction in cell viability; assay type: functional, cell-based
HCT-116 = test: Cytotoxicity against human HCT-116 cells assessed as reduction in cell viability; assay type: functional, cell-based
MDA-MB-231 = test: Cytotoxicity against human MDA-MB-231 cells assessed as reduction in cell viability; assay type: functional, cell-based
HFF-1 = test: Cytotoxicity against human HFF-1 cells assessed as reduction in cell viability; assay type: cell-based
Fibroblast = test: Cytotoxicity against human fibroblasts assessed as reduction in cell viability; assay type: cell-based
[4] = Selectivity index, ratio of IC50 for cytotoxicity against human fibroblasts to IC50 for human A549 cells; assay type: toxicity, cell-based; settings: human fibroblasts versus A549 cells, read-out: Selectivity Index
[5] = Selectivity index, ratio of IC50 for cytotoxicity against human fibroblasts to IC50 for human HeLa cells; assay type: toxicity, cell-based; settings: human fibroblasts versus HeLa cells, read-out: Selectivity Index
[6] = Selectivity index, ratio of IC50 for cytotoxicity against human fibroblasts to IC50 for human HCT-116 cells; assay type: toxicity, cell-based; settings: human fibroblasts versus HCT-116 cells, read-out: Selectivity Index
[7] = Selectivity index, ratio of IC50 for cytotoxicity against human fibroblasts to IC50 for human MDA-MB-231 cells; assay type: toxicity, cell-based; settings: human fibroblasts versus MDA-MB-231 cells, read-out: Selectivity Index
A549 [8] = test: Induction of mitotic arrest in human A549 cells assessed as reduction in microtubule network with fragmented spindle poles at 0.50 uM measured after 8 hrs by DAPI/ACA staining based fluorescence microscopic analysis; assay type: functional, cell-based; settings: dose 0.5 µM
A549 [9] = test: Antitumor activity against human A549 cell assessed as disrupted in spheroid morphology at 0.5 to 1 uM measured after 6 days; assay type: functional, cell-based; settings: dose 0.5-1 µM, time 6.0 day
Tubulin (Homo sapiens) [10] = molecular target: T1, Tubulin (Homo sapiens); test: Inhibition of microtubule (unknown origin) polymerization at 0.6 uM; assay type: protein-complex assay
Tubulin (Homo sapiens) [11] = molecular target: T1, Tubulin (Homo sapiens); test: Inhibition of microtubule (unknown origin) polymerization at 5 uM; assay type: protein-complex assay
A549 [12] = test: Cytotoxicity against human A549 cells assessed as cell death measured after 2 to 3 days; assay type: functional, cell-based; settings: time 2-3 day

CC[C@]1(O)C[C@@H]2CN(CCc3c([nH]c4ccccc34)[C@@](C(=O)OC)(c3cc4c(cc3OC)N(C)[C@H]3[C@@](O)(C(=O)OC)[C@H](OC(C)=O)[C@]5(CC)C=CCN6CC[C@]43[C@@H]65)C2)C1
inhibition (Tubulin (Homo sapiens) [1]): inactive

COc1ccc(S(=O)(=O)N2Cc3ccccc3-c3sc(Br)c(C)c32)cc1
pIC50 (A549 [2]): 5.55 | Ratio IC50 (A549 [3]): 175

COc1ccc(S(=O)(=O)N2Cc3ccccc3-c3scc(C)c32)cc1
pIC50 (A549 [2]): 6.20 | Ratio IC50 (A549 [3]): 39.3

CC(C)(C)c1ccc(S(=O)(=O)N2Cc3ccccc3-c3sccc32)cc1
pIC50 (A549 [2]): < 5.00

O=S(=O)(c1ccc(C(F)(F)F)cc1)N1Cc2ccccc2-c2sccc21
pIC50 (A549 [2]): < 5.00

COc1ccc(S(=O)(=O)N2Cc3ccccc3-c3sc(Br)cc32)cc1
pIC50 (A549 [2]): 6.43 | pIC50 (HeLa): 6.37 | pIC50 (HCT-116): 6.37 | pIC50 (MDA-MB-231): 6.59 | pIC50 (HFF-1): 6.10 | pIC50 (Fibroblast): 5.85 | selectivity ratio [4]: 3.8 | selectivity ratio [5]: 3.2 | selectivity ratio [6]: 3.2 | selectivity ratio [7]: 5.3 | Activity (A549 [8]): inactive | Activity (A549 [9]): Active | inhibition (Tubulin (Homo sapiens) [10]): Active | inhibition (Tubulin (Homo sapiens) [11]): Active | Ratio IC50 (A549 [3]): 23.1 | Activity (A549 [12]): Active | inhibition (Tubulin (Homo sapiens) [1]): Active

Cc1ccc(S(=O)(=O)N2Cc3ccccc3-c3sc(Br)cc32)cc1
pIC50 (A549 [2]): 5.68 | Ratio IC50 (A549 [3]): 131.2

CS(=O)(=O)N1Cc2ccccc2-c2sc(Br)cc21
pIC50 (A549 [2]): < 5.00 | Ratio IC50 (A549 [3]): >625

COc1ccc(S(=O)(=O)N2Cc3ccccc3-c3sc(Cl)c(C)c32)cc1
pIC50 (A549 [2]): 6.26 | Ratio IC50 (A549 [3]): 34.3

Cc1cccc(S(=O)(=O)N2Cc3ccccc3-c3sc(Br)cc32)c1
pIC50 (A549 [2]): 5.64 | Ratio IC50 (A549 [3]): 143.7

O=S(=O)(c1ccc(C(F)(F)F)cc1)N1Cc2ccccc2-c2sc(Br)cc21
pIC50 (A549 [2]): < 5.00 | Ratio IC50 (A549 [3]): >625

O=S(=O)(c1ccccc1)N1Cc2ccccc2-c2sccc21
pIC50 (A549 [2]): 5.28

COc1ccc(S(=O)(=O)N2Cc3ccccc3-c3sc(Cl)cc32)cc1
pIC50 (A549 [2]): 6.37 | Ratio IC50 (A549 [3]): 36.8

CS(=O)(=O)N1Cc2ccccc2-c2sccc21
pIC50 (A549 [2]): < 5.00

COc1cc2c(c(OC)c1OC)-c1ccc(OC)c(=O)cc1[C@@H](NC(C)=O)CC2 [COLCHICINE]
pIC50 (A549 [2]): 7.80 | pIC50 (HeLa): 8.00 | pIC50 (HCT-116): 7.66

COC(=O)Nc1nc2cc(C(=O)c3cccs3)ccc2[nH]1
inhibition (Tubulin (Homo sapiens) [1]): Active

O=S(=O)(c1ccccc1)N1Cc2ccccc2-c2sc(Br)cc21
pIC50 (A549 [2]): 5.72 | Ratio IC50 (A549 [3]): 118.7

COc1ccc(S(=O)(=O)N2Cc3ccccc3-c3sc(I)cc32)cc1
pIC50 (A549 [2]): 6.11 | Ratio IC50 (A549 [3]): 48.7

Cc1cccc(S(=O)(=O)N2Cc3ccccc3-c3sccc32)c1
pIC50 (A549 [2]): 5.22

O=S(=O)(c1cccs1)N1Cc2ccccc2-c2sccc21
pIC50 (A549 [2]): < 5.00

Cc1ccc(S(=O)(=O)N2Cc3ccccc3-c3sccc32)cc1
pIC50 (A549 [2]): 5.47

CC(C)(C)c1ccc(S(=O)(=O)N2Cc3ccccc3-c3sc(Br)cc32)cc1
pIC50 (A549 [2]): < 5.00 | Ratio IC50 (A549 [3]): >625

COc1ccc(S(=O)(=O)N2Cc3ccccc3-c3sccc32)cc1
pIC50 (A549 [2]): 6.11

Reference: ChEMBL document CHEMBL5029158, “Design, structure-activity relationship study and biological evaluation of the thieno[3,2-c]isoquinoline scaffold as a potential anti-cancer agent” (Bioorg Med Chem Lett, 2021)
